From ChEMBL document CHEMBL1201862, “PubChem BioAssay data set” (2004)
The source made the active and inactive calls.

Experiments:
Beta-lactamase [1] = target: T1, Beta-lactamase (Pseudomonas aeruginosa, UniProt Q79MP6); test: IMP-1 metallo-beta-lactamase inhibitors, dose response, selectivity assay for VIM-2 inhibitor project, biochemical, epi-absorbance (AID 1920)
Beta-lactamase [2] = target: Beta-lactamase (Salmonella choleraesuis (strain SC-B67), UniProt Q5J463); test: Epi-absorbance-based counterscreen for selective VIM-2 inhibitors: dose response biochemical high throughput screening assay to identify inhibitors of TEM-1 serine-beta-lactamase.
Beta-lactamase (Salmonella choleraesuis (strain SC-B67), UniProt Q5J463), sequence (Q5J463 whole entry): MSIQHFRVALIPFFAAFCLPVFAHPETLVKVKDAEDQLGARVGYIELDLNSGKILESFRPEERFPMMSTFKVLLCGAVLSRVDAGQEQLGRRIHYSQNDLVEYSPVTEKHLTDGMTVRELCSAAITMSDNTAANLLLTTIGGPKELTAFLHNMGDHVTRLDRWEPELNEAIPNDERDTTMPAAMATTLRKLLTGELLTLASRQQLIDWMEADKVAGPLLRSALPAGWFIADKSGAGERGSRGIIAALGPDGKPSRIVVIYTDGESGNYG

Beta Lactamase [3] = target: T2, Beta Lactamase (Pseudomonas aeruginosa, UniProt Q932Y6); test: VIM-2 inhibitor FRET-based artefact check, dose response, artefact control for selective VIM-2 inhibitor project, biochemical, FRET readout, CCF2 substrate (AID 1926)
T2 sequence (Q932Y6 whole entry): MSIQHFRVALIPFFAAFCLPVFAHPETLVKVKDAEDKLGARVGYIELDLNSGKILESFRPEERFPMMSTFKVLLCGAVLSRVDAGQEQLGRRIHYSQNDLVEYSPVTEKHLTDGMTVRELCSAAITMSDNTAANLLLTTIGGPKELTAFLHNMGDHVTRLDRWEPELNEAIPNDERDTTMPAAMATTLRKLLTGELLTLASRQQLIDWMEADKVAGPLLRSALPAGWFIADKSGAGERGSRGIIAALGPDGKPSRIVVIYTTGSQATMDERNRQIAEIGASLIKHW

Beta Lactamase [4] = target: T2, Beta Lactamase; test: VIM-2 metallo-beta-lactamase inhibitor potency, dose response, biochemical, epi-absorbance readout, selective inhibitors (AID 1919)
Beta-lactamase [5] = target: T1, Beta-lactamase; test: […] counterscreen for selective VIM-2 inhibitors: dose response biochemical high throughput screening assay to identify inhibitors of IMP-1 metallo-beta-lactamase.
[6] = NIH/3T3 fibroblast cytotoxicity, dose response, cytotoxicity control for T. cruzi growth inhibitor project, cell-based, cherry-pick samples, set 2 (AID 651817); type: functional; conditions: NIH3T3
[7] = target: T3, Low molecular weight phosphotyrosine protein phosphatase (Homo sapiens, UniProt P24666); type: functional; conditions: read-out: IC50_Mean
T3 sequence (P24666 whole entry): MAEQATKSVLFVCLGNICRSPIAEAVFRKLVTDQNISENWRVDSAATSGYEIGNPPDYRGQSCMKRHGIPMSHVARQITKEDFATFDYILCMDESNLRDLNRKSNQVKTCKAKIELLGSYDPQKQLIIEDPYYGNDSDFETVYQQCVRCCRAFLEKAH

[8] = target: T3, Low molecular weight phosphotyrosine protein phosphatase; type: functional; conditions: read-out: IC50_Mean; remark: listed apart in the source
Bcl-2-related protein A1 = target: T4, Bcl-2-related protein A1 (Mus musculus, UniProt Q07440); type: functional;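 note: confirmatory dose–response counterscreen on Bfl-1, used to check hits from a UBC13 polyubiquitin inhibitor campaign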
T4 sequence (Q07440 whole entry): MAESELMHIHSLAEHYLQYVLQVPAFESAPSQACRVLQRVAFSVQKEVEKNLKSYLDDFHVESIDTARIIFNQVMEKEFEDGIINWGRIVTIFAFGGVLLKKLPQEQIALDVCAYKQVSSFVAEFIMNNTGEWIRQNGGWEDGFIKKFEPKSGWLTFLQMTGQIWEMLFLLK

Protein RecA = target: T5, Protein RecA (Mycobacterium tuberculosis, UniProt P9WHJ3); test: Fluorescence Cell-Free Homogeneous Dose Retest to Identify Inhibitors of RecA-Intein Splicing Activity. [Related pubchem assays (depositor defined):AID2097, AID2223, AID489010, AID492950]; type: functional
T5 sequence (P9WHJ3 whole entry): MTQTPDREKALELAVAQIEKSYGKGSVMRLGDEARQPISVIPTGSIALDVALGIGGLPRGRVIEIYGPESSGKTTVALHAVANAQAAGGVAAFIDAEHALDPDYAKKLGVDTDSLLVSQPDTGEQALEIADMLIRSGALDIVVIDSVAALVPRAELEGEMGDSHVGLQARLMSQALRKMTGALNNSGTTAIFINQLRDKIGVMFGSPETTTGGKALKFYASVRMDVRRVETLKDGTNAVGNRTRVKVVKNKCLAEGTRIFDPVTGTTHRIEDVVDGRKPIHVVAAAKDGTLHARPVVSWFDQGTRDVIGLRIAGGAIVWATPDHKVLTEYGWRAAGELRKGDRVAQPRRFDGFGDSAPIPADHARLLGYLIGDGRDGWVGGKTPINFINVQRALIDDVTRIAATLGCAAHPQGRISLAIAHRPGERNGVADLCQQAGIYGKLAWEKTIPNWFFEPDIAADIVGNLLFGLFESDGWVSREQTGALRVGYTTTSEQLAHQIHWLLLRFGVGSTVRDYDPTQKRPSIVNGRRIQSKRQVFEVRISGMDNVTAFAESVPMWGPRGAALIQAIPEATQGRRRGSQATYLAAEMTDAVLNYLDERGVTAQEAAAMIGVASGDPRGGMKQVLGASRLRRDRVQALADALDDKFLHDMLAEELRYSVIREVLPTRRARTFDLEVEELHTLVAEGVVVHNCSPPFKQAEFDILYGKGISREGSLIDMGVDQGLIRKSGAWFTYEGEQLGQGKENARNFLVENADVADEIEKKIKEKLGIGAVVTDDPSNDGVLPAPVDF

[9] = HepG2 cell cytotoxicity, dose response, cytotoxicity control for Shn3 inhibitor project, CellTiter-Glo, cherry-picked (AID 624134); type: functional, cell-based
Beta Lactamase [10] = target: T2, Beta Lactamase; test: beta-lactamase reporter inhibitor potency, dose response, artefact control for TLR9-MyD88 binding inhibitor project, BLA reporter cells, FRET fluorescence (AID 588341); type: cell-based;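 note: cell based assay in CHO-K1 cells stably expressing beta-lactamase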
[11] = control 3'UTR Renilla luciferase suppression, dose response, counter-screen for Shn3 inhibitor project, cell-based, Clone20-Shn3RL, cherry-picked (AID 624133); type: functional
[12] = target: T6, Ubiquitin-conjugating enzyme E2 N (Homo sapiens, UniProt P61088); type: functional
T6 sequence (P61088 whole entry): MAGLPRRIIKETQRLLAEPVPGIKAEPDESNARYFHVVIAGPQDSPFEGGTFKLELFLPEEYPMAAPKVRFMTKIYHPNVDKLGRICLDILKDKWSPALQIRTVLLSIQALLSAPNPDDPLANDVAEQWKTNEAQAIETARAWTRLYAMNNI

CHO = test: cytotoxicity in TLR9-MyD88 CHO cells, dose response, cytotoxicity control for TLR9-MyD88 binding inhibitor project, cell-based, luminescence (AID 588339); type: functional, hamster; conditions: Cricetulus griseus;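 note: CHO cells stably coexpressing TLR9 and MyD88 fusions from primary screen; compound exposure lasted 48 hours before viability readout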
[13] = Shn3 3'UTR reporter inhibitors, dose response, cell-based, Clone20 osteoblasts, firefly luciferase, cherry-picked (AID 624132); type: functional;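 note: firefly luciferase luminescence from reporter carrying the Shn3 3'UTR in osteoblasts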
[14] = target: ATP-binding cassette sub-family B member 6 (Homo sapiens, UniProt Q9NP58); test: ABCB6 transporter inhibitors, porphyrin accumulation, dose response, flow cytometry, K562-ABCB6 cells, cherry pick 02 (AID 624487); type: functional; conditions: read-out: EC50_MICROM
ATP-binding cassette sub-family B member 6, sequence (Q9NP58 whole entry): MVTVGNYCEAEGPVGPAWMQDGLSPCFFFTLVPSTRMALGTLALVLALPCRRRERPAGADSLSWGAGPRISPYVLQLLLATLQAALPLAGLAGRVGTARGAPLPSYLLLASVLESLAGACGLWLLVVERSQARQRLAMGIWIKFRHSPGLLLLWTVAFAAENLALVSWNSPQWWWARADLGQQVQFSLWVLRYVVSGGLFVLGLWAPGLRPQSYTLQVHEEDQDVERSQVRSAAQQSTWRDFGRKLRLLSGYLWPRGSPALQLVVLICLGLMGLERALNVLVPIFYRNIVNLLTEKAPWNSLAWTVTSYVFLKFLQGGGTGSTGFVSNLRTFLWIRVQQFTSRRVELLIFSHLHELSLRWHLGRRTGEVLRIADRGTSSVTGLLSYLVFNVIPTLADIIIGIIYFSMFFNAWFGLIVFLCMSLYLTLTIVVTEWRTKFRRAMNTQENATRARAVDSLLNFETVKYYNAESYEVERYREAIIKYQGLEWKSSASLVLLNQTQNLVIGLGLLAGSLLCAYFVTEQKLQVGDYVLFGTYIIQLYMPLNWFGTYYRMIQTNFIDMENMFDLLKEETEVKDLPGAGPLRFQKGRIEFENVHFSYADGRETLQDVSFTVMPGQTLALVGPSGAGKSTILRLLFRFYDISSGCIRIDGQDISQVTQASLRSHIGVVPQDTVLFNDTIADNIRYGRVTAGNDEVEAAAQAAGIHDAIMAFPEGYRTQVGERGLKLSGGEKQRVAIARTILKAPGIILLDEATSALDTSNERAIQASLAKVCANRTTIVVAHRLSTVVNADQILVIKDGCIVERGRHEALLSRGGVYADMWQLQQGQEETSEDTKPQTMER

[15] = target: T7, Replicative DNA helicase DnaB (Mycobacterium tuberculosis, UniProt P9WMR3); test: DnaB intein splicing inhibitors, dose response, biochemical, cell-free fluorescence (AID 449749); type: functional
T7 sequence (P9WMR3 whole entry): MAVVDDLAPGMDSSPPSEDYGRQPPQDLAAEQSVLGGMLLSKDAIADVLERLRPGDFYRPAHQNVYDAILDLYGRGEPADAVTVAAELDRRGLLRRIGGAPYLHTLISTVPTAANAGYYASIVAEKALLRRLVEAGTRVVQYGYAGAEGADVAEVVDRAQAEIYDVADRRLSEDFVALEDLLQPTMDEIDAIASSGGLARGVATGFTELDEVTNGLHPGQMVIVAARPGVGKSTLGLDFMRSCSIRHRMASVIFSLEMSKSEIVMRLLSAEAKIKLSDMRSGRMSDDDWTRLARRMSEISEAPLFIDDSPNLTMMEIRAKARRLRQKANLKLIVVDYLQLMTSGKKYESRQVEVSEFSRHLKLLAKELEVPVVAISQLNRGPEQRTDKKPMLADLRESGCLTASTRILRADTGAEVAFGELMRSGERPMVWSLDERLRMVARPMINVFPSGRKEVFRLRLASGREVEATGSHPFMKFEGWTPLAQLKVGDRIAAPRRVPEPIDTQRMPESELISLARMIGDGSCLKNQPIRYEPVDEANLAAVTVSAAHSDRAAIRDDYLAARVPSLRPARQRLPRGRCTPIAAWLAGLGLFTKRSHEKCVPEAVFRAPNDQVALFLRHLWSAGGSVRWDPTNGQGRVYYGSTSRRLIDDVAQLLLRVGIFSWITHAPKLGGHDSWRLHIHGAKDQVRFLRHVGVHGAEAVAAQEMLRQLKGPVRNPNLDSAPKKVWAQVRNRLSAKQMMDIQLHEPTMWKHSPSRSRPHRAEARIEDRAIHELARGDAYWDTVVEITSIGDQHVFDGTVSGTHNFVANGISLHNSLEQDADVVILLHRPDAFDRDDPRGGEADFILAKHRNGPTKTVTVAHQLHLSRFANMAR

[16] = Luminescence Cell-Based Dose Retest to Confirm Inhibitors of Cancer Stem Cells. [Related pubchem assays (depositor defined):AID2717, AID2721]; type: functional; conditions: Homo sapiens
[17] = target: T6, Ubiquitin-conjugating enzyme E2 N; type: functional; remark: listed apart in the source
[18] = target: T8, Calpain-2 catalytic subunit (Sus scrofa, UniProt P43367); test: pig calpain II inhibitor potency, dose response, biochemical, fluorogenic peptide substrate (AID 1420); type: functional
T8 sequence (P43367 whole entry): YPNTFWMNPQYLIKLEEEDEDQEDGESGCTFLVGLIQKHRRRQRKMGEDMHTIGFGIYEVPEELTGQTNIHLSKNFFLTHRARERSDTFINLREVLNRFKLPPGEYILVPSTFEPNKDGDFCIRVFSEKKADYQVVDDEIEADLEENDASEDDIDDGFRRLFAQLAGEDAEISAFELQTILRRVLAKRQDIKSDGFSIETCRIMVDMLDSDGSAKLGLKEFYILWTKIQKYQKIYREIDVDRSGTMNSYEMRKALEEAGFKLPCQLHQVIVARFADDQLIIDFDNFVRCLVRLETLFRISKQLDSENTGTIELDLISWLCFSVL

HeLa = test: HeLa cell cytotoxicity, dose response, cytotoxicity control, ATP luminescence, cherry-pick samples (AID 687004); type: functional, cell-based; conditions: Homo sapiens
[19] = inhibitors of PGC1a acetylation in cells, dose response, cell-based, cherry-picked samples (AID 720514); type: functional;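 note: potency may reflect raised or lowered acetylation signal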
[20] = target: SWI/SNF-related matrix-associated actin-dependent regulator of chromatin subfamily A member 2 (Homo sapiens, UniProt P51531); test: Luminescence-based cell-based high throughput dose response assay to identify activators of the function of SWI/SNF related, matrix associated, actin dependent regulator of chromatin, subfamily a, member 2 (SMARCA2, BRM).; type: functional
SWI/SNF-related matrix-associated actin-dependent regulator of chromatin subfamily A member 2, sequence (P51531 whole entry): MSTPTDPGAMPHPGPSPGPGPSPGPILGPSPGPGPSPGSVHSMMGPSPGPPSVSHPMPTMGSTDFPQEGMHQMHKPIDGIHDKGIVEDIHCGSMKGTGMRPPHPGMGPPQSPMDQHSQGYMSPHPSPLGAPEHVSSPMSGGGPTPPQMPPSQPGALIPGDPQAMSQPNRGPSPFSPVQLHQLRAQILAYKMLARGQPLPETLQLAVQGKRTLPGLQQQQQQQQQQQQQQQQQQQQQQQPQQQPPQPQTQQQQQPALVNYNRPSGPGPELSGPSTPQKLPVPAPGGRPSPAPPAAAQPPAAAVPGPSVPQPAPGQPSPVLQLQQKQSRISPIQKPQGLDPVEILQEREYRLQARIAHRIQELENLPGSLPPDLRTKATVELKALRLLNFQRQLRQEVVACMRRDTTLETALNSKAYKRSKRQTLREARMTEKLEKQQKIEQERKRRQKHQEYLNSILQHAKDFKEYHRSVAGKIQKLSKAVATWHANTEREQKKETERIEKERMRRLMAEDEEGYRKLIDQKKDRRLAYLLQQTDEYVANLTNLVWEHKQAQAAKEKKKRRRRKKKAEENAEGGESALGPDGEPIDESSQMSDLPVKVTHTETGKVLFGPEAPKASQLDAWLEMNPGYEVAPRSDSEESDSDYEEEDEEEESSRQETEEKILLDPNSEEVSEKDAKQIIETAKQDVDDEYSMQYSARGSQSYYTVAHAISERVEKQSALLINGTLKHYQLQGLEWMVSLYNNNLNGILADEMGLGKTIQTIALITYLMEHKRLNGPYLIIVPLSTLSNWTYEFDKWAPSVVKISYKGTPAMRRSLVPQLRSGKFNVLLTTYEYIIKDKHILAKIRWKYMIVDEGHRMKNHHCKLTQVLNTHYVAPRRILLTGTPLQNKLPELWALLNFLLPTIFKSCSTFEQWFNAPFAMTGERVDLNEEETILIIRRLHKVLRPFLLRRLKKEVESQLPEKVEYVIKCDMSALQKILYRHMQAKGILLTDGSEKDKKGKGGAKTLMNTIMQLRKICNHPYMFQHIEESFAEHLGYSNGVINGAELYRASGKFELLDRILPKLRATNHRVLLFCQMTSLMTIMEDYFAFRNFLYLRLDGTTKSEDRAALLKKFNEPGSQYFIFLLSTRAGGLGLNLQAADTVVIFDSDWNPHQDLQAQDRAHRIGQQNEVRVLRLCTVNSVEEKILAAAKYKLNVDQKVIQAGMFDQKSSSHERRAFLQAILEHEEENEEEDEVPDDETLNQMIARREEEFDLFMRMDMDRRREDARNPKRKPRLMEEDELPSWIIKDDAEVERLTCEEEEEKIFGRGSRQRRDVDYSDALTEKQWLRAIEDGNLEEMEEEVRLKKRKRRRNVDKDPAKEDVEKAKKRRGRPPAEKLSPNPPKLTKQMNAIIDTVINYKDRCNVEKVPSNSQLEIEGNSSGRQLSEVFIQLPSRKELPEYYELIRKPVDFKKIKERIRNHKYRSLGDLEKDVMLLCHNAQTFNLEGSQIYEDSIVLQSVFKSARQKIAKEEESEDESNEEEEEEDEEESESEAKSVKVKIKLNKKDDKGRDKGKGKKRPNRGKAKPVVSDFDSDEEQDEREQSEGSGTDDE

[21] = Counterscreen for activators of the function of SWI/SNF related, matrix associated, actin dependent regulator of chromatin, subfamily a, member 2 (SMARCA2, BRM): Luminescence-based cell-based high throughput dose response assay to identify non-selective compounds using the VP16 reporter assay.; type: functional

T1 sequence (Q79MP6 whole entry): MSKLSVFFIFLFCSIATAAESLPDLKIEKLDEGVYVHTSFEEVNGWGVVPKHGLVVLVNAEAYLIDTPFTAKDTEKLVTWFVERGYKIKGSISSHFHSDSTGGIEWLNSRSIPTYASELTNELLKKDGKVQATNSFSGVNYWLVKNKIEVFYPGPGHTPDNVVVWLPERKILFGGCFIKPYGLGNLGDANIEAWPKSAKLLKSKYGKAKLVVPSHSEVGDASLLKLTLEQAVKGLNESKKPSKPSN

With `O=C(C1=C(O)C(=O)N(Cc2cccnc2)C1c1ccccn1)c1ccc(F)cc1` (configuration not stated) the IC50 (Beta-lactamase [1]) was > 59.6 µM (inactive), the IC50 (Beta-lactamase [2]) was > 59.6 µM (inactive) and the IC50 (Beta Lactamase [3]) was 0.941 µM (active). For the same molecule, the IC50 (Beta Lactamase [4]) was 2.42 µM (active) and the IC50 (Beta-lactamase [5]) was > 59.6 µM (inactive).
For `C[C@@H]1CN([C@H](C)CO)C(=O)Cc2cc(NS(=O)(=O)c3ccc(Cl)cc3)ccc2O[C@H]1CN(C)S(=O)(=O)c1ccc(Cl)cc1`, the AC50 [6] was 16.9 µM (active).
With `O=C1C(=Cc2cn(-c3ccccc3)nc2-c2ccc(OCc3ccc(Cl)cc3)cc2)SC(=S)N1CCS(=O)(=O)O` the IC50 [7] was 7.21 µM (active) and the IC50 [8] was 1.35 µM (active).
For `CC(=O)Nc1ccc(NC(=O)c2nc(S(=O)(=O)Cc3cccc(C)c3)ncc2Cl)cc1`, the IC50 (Bcl-2-related protein A1) was > 20 µM (inactive), the EC50 (Protein RecA) was 5.24 µM (active) and the AC50 [9] was 66.6 µM (active). For the same molecule, the IC50 (Beta Lactamase [10]) was 9.43 µM (active), the AC50 [11] was 6.53 µM (active) and the IC50 [12] was > 20 µM (inactive). The IC50 (CHO) was 3.54 µM (active), the AC50 [13] was 0.528 µM (active) and the EC50 [14] was 17.8 µM (active). For the same molecule, the AC50 [15] was 7.54 µM (active), the AC50 [16] was 2.47 µM (active) and the IC50 [17] was 13 µM (active).
For `CC(C)c1ccccc1N=C(S)NN(Cc1ccccc1)c1ccccc1`, the IC50 [18] was < 0.4 µM (not active) and the AC50 (HeLa) was > 52 µM (inactive).
With `Cc1cc(C)cc(OC(=O)C[S+]([O-])c2ccc(C(F)(F)F)cc2[N+](=O)[O-])c1` (configuration not stated) the AC50 [19] was 10.3 µM (active), the EC50 [20] was > 91.2 µM (inactive) and the EC50 [21] was > 91.2 µM (inactive). For the same molecule, the EC50 (Protein RecA) was 1.3 µM (active) and the AC50 [15] was 4.03 µM (active).
